Data from PMC9237828, “Chemically Tuning Resveratrol for the Effective Killing of Gram-Positive Pathogens” (Journal of Natural Products, 2022).
Converted amounts (≈) assume the structure as drawn.

Columns and labels:
[1] = test system: panel of aerobic and anaerobic Gram-positive bacteria; test: organism not typed; assay type: cell-based
S.aureus LMG8224 = test: microbe, parasite or virus in culture; assay type: cell-based, Staphylococcus aureus; conditions: Staphylococcus aureus, LMG8224, 20 h, read-out: Minimal Inhibition Concentration (MIC) S.aureus LMG8224
S.aureus LMG15975 = test: microbe, parasite or virus in culture; assay type: cell-based, Staphylococcus aureus; conditions: Staphylococcus aureus, LMG15975, 20 h, read-out: Minimal Inhibition Concentration (MIC) S.aureus LMG15975
B. cereus ATCC14579 = test: microbe, parasite or virus in culture; assay type: cell-based, Bacillus cereus; conditions: Bacillus cereus, ATCC14579, 20 h, read-out: Minimal Inhibition Concentration (MIC) B. cereus ATCC14579
B. cereus ATCC10987 = test: microbe, parasite or virus in culture; assay type: cell-based, Bacillus cereus; conditions: Bacillus cereus, ATCC10987, 20 h, read-out: Minimal Inhibition Concentration (MIC) B. cereus ATCC10987
S.aureus LMG10147 = test: microbe, parasite or virus in culture; assay type: cell-based, Staphylococcus aureus; conditions: Staphylococcus aureus, LMG10147, 20 h, read-out: Minimal Inhibition Concentration (MIC) S.aureus LMG10147
C. difficile CECT531 = test: microbe, parasite or virus in culture; assay type: cell-based, Clostridioides difficile; conditions: Clostridioides difficile, CECT531, 24 h, read-out: Minimal Inhibition Concentration (MIC) C. difficile CECT531
C. botulinum CECT551 = test: microbe, parasite or virus in culture; assay type: cell-based; conditions: Clostridium botulinum, CECT551, 24 h, read-out: Minimal Inhibition Concentration (MIC) C. botulinum CECT551
C. perfringens CECT376 = test: microbe, parasite or virus in culture; assay type: cell-based; conditions: Clostridium perfringens, CECT376, 24 h, read-out: Minimal Inhibition Concentration (MIC) C. perfringens CECT376
C. beijerinckii B504 = test: MIC test, anaerobes; assay type: cell-based; conditions: Clostridium beijerinckii, B504, 24 h; read-out: Minimal Inhibition Concentration (MIC) C. beijerinckii B504
Experimental: (§1) The resveratrol derivatives were serially diluted in cMHB (BD Difco) in 96-well microplates. Plates were then inoculated with the indicator bacteria at a final concentration of 5 × 10^5 CFU/mL and incubated at 37 °C for 20 h. In the case of the anaerobic bacteria (Clostridium and Clostridioides), the test was performed following the recommendation of CLSI for anaerobes[77] but using RCM medium instead of cMHB. The cultures were cultivated inside an anaerobic chamber at 37 °C for 24 h. All the tests were performed in triplicate.

C. ihumii AP5 = test: MIC test, anaerobes; assay type: cell-based; conditions: 24 h; read-out: Minimal Inhibition Concentration (MIC) C. ihumii AP5
Experimental: as §1

C. tetani CECT4629 = test: microbe, parasite or virus in culture; assay type: cell-based; conditions: Clostridium tetani, CECT4629, 24 h, read-out: Minimal Inhibition Concentration (MIC) C. tetani CECT4629
E. faecalis LMG08222 = test: microbe, parasite or virus in culture; assay type: cell-based, Enterococcus faecalis; conditions: Enterococcus faecalis, LMG08222, 20 h, read-out: Minimal Inhibition Concentration (MIC) E. faecalis LMG08222
E. faecalis V583 = test: microbe, parasite or virus in culture; assay type: cell-based, Enterococcus faecalis; conditions: Enterococcus faecalis, V583, 20 h, read-out: Minimal Inhibition Concentration (MIC) E. faecalis V583
E. faecium LMG16003 [2] = test: microbe, parasite or virus in culture; assay type: cell-based; conditions: Enterococcus faecium, LMG16003, 20 h, read-out: Minimal Inhibition Concentration (MIC) E. faecium LMG16003
E. faecium LMG16003 [3] = test: Combined action with antibiotics (MIC reduction, checkerboard FICI); assay type: cell-based; conditions: for FICI, antibiotic with 15 / FICI, antibiotic with 17: fractional inhibitory concentration index, EUCAST, * means relevant FICI values; for MIC of antibiotic in combination with RES: RES at 8 μM
S. aureus LMG8224 = test: as above; assay type: cell-based, Staphylococcus aureus; conditions: for MIC of antibiotic in combination with RES: RES at 4 μM; for FICI, antibiotic with 15 / FICI, antibiotic with 17: fractional inhibitory concentration index, EUCAST, * means relevant FICI values

Row | Compound | antibacterial activity against the Gram-positive panel [1] | MIC (S.aureus LMG8224) [µM] | MIC (B. cereus ATCC10987) [µM] | MIC (C. difficile CECT531) [µM] | MIC (C. perfringens CECT376) [µM] | MIC (E. faecalis V583) [µM] | MIC of antibiotic in combination with 15 (E. faecium LMG16003 [3]; 15 at 4 μM) [µM] | MIC of antibiotic in combination with 15 (E. faecium LMG16003 [3]; 15 at 8 μM) [µM] | FICI, antibiotic with 15 (E. faecium LMG16003 [3]) | MIC of antibiotic in combination with 15 (S. aureus LMG8224; 15 at 2 μM) [µM] | MIC of antibiotic in combination with 15 (S. aureus LMG8224; 15 at 4 μM) [µM] | MIC of antibiotic in combination with 17 (S. aureus LMG8224; 17 at 4 μM) [µM] | MIC of antibiotic in combination with RES (S. aureus LMG8224) [µM] | MIC of antibiotic alone (Ab) (S. aureus LMG8224) [µM] | FICI, antibiotic with 15 (S. aureus LMG8224) | FICI, antibiotic with 17 (S. aureus LMG8224) | other results
1 | CC(C)[Si](Oc1ccc(/C=C/c2cc(O[Si](C(C)C)(C(C)C)C(C)C)cc(O[Si](C(C)C)(C(C)C)C(C)C)c2)cc1)(C(C)C)C(C)C [compound 22] | not active or displayed very low antibacterial activity | – | – | – | – | – | – | – | – | – | – | – | – | – | – | – | –
2 | CCCCCCCC(=O)OC[C@H]1O[C@@H](Oc2cc(/C=C/c3ccc(OC)cc3)cc(OC)c2)[C@H](O)[C@@H](O)[C@@H]1O [compound 28] | weak antibacterial activity | 128 (≈ 69.7 µg/mL) | 128 (≈ 69.7 µg/mL) | 85.3 ± 21.3 (≈ 46.5 µg/mL) | 128 (≈ 69.7 µg/mL) | – | – | – | – | – | – | – | – | – | – | – | MIC (S.aureus LMG15975): 128 µM (≈ 69.7 µg/mL); MIC (B. cereus ATCC14579): 128 µM (≈ 69.7 µg/mL); MIC (S.aureus LMG10147): 128 µM (≈ 69.7 µg/mL); MIC (C. botulinum CECT551): 26.6 ± 5.3 µM (≈ 14.5 µg/mL); MIC (C. beijerinckii B504): 32 µM (≈ 17.4 µg/mL); MIC (C. ihumii AP5): 64 µM (≈ 34.9 µg/mL); MIC (C. tetani CECT4629): 16 µM (≈ 8.71 µg/mL)
3 | COc1cc(O)cc(/C=C/c2ccc(O[C@H]3O[C@@H](C(=O)O)[C@H](O)[C@@H](O)[C@@H]3O)cc2)c1 [compound 29] | did not show antibiotic activity | – | – | – | – | – | – | – | – | – | – | – | – | – | – | – | –
4 | CC(C)(C)[Si](C)(C)Oc1ccc(/C=C/c2cc(OS(=O)(=O)O)cc(OS(=O)(=O)O)c2)cc1 [compound 34, 3,5-Disulfate-4′-tert-butyldimethylsilyl resveratrol] | – | – | – | – | 128 (≈ 64.3 µg/mL) | – | – | – | – | – | – | – | – | – | – | – | MIC (C. botulinum CECT551): 53.3 ± 10.6 µM (≈ 26.8 µg/mL); MIC (C. beijerinckii B504): 32 µM (≈ 16.1 µg/mL); MIC (C. ihumii AP5): 128 µM (≈ 64.3 µg/mL); MIC (C. tetani CECT4629): 5.3 ± 1.3 µM (≈ 2.66 µg/mL)
5 | CC(C)[Si](Oc1ccc(/C=C/c2cc(O[Si](C(C)C)(C(C)C)C(C)C)cc(OS(=O)(=O)O)c2)cc1)(C(C)C)C(C)C [compound 36, 3-Sulfate-4′,5-diisopropylsilyl resveratrol] | – | – | – | – | – | 128 (≈ 79.5 µg/mL) | – | – | – | – | – | – | – | – | – | – | MIC (E. faecalis LMG08222): 128 µM (≈ 79.5 µg/mL)
6 | CNC(C)C1CCC(N)C(OC2C(N)CC(N)C(OC3OCC(C)(O)C(NC)C3O)C2O)O1 (stereo not shown) [gentamicin] | – | 1 ± 0.35 (≈ 0.478 µg/mL) | 4 (≈ 1.91 µg/mL) | > 32 | > 32 | > 32 | 13.3 ± 1.8 | 5.3 ± 0.9 | 0.41 | 0.5 ± 0 | 0.1 ± 0 | 0.1 ± 0 | 1 ± 0 | 1 ± 0 | 0.37 | 0.58 | MIC (E. faecium LMG16003 [2]): 12.6 ± 1.61 µM (≈ 6 µg/mL); MIC of antibiotic in combination with 17 (E. faecium LMG16003 [3]; 17 at 2 μM): 13.3 ± 1.8 µM; MIC of antibiotic in combination with 17 (E. faecium LMG16003 [3]; 17 at 4 μM): 6.6 ± 0.9 µM; FICI, antibiotic with 17 (E. faecium LMG16003 [3]): 0.66; MIC of antibiotic in combination with 17 (S. aureus LMG8224; 17 at 2 μM): 0.3 ± 0 µM
7 | CN[C@H](CC(C)C)C(=O)N[C@H]1C(=O)N[C@@H](CC(N)=O)C(=O)N[C@H]2C(=O)N[C@H]3C(=O)N[C@H](C(=O)N[C@H](C(=O)O)c4cc(O)cc(O)c4-c4cc3ccc4O)[C@H](O)c3ccc(c(Cl)c3)Oc3cc2cc(c3O[C@@H]2O[C@H](CO)[C@@H](O)[C@H](O)[C@H]2O[C@H]2C[C@](C)(N)[C@H](O)[C@H](C)O2)Oc2ccc(cc2Cl)[C@H]1O [vancomycin, reference compound] | – | 10.7 ± 2.7 (≈ 15.5 µg/mL) | 6 ± 2 (≈ 8.7 µg/mL) | 1.25 ± 0.75 (≈ 1.81 µg/mL) | 0.18 ± 0.06 (≈ 0.261 µg/mL) | 9.8 ± 2.7 (≈ 14.2 µg/mL) | – | – | – | – | – | – | – | – | – | – | MIC (E. faecium LMG16003 [2]): > 32 µM
8 | Resveratrol-3-glucuronate [compound 8] | did not show antibiotic activity | – | – | – | – | – | – | – | – | – | – | – | – | – | – | – | –
9 | bacitracin | – | – | – | – | – | – | 16 ± 0 | 0.3 ± 0.2 | 0.27* | 26.6 ± 3.7 | 4 ± 0 | 6.6 ± 0.9 | >32 | >32 | 0.31* | 0.41* | MIC of antibiotic in combination with 17 (E. faecium LMG16003 [3]; 17 at 2 μM): 32 ± 0 µM; MIC of antibiotic in combination with 17 (E. faecium LMG16003 [3]; 17 at 4 μM): 16 ± 0 µM; MIC of antibiotic in combination with RES (E. faecium LMG16003 [3]): >32 µM; MIC of antibiotic alone (Ab) (E. faecium LMG16003 [3]): >32 µM; FICI, antibiotic with 17 (E. faecium LMG16003 [3]): 0.75*
10 | polymyxin B | – | – | – | – | – | – | 21.3 ± 3.7 | 1.8 ± 0.2 | 0.27* | 8 ± 0 | 1 ± 0 | 6.6 ± 0.9 | >32 | >32 | 0.25* | 0.45* | MIC of antibiotic in combination with RES (E. faecium LMG16003 [3]): >32 µM; MIC of antibiotic alone (Ab) (E. faecium LMG16003 [3]): >32 µM; MIC of antibiotic in combination with 17 (S. aureus LMG8224; 17 at 2 μM): 13.3 ± 1.8 µM
